Activity calls are given as the source filed them. The calls are words filed in the database; no cut-off is given here.
Tests used:
[1] = target: Glycogen synthase kinase-3 beta (Homo sapiens, UniProt P49841); assay: Inhibition of human recombinant N-terminal His-tagged GSK3beta expressed in Escherichia coli using RRRPASVPPSPSLS RHS(pS)HQRR as substrate incubated for 30 mins in presence of ATP by Kinase-Glo reagent based luminescence assay
Acetylcholinesterase [2] = target: Acetylcholinesterase (Electrophorus electricus, UniProt O42275); assay: Inhibition of electric eel recombinant AChE preincubated for 1 min in presence of DNTB followed by addition of acetylthiocholine iodide substrate and measured after 20 mins by Ellman's method
Acetylcholinesterase [3] = target: Acetylcholinesterase (Homo sapiens, UniProt P22303); assay: Inhibition of human recombinant AChE preincubated for 1 min in presence of DNTB followed by addition of acetylthiocholine iodide substrate and measured after 20 mins by Ellman's method
Mus musculus [4] = assay: Cognitive enhancing effect in mouse model of scopolamine-induced amnesia assessed as decrease in escape latency at 10 mg/kg/day, po measured by Morris water maze test; type: functional, organism-based
Mus musculus [5] = assay: Improvement in learning and spatial memory in amyloid beta (1 to 42)-induced mouse model of Alzheimer's disease assessed as increase in spontaneous alteration at 10 mg/kg/day, po pretreated with amyloid beta42 for 3 days followed by treatment with compound and measured after 9 days measured by Y-maze test; type: functional, organism-based; settings: time 9.0 day
Mus musculus [6] = assay: Improvement in learning and spatial memory in amyloid beta (1 to 42)-induced mouse model of Alzheimer's disease at 10 mg/kg/day, po pretreated with amyloid beta42 for 3 days followed by treatment with compound and measured after 9 days measured by Y-maze test; type: functional, organism-based; settings: time 9.0 day
[7] = AUC (0 to infinity) in Sprague-Dawley rat at 10 mg/kg, po measured up to 24 hrs by LC-MS/MS analysis; type: ADME, organism-based; set-up: route oral, dose 10 mg/kg, time <=24; settings: in vivo
[8] = Half life in Sprague-Dawley rat at 10 mg/kg, po measured up to 24 hrs by LC-MS/MS analysis; type: ADME, organism-based; settings: in vivo
[9] = Drug level in ICR mouse plasma at 10 mg/kg, po measured after 1 hr by LC/MS/MS analysis; type: ADME, organism-based
[10] = Ratio of drug level in brain to plasma of ICR mouse at 10 mg/kg, po measured after 1 hr by LC/MS/MS analysis; type: ADME, organism-based; settings: brain and plasma
[11] = Half life in Sprague-Dawley rat at 1 mg/kg, iv measured up to 24 hrs by LC-MS/MS analysis; type: ADME, organism-based; settings: in vivo
[12] = AUC (0 to infinity) in Sprague-Dawley rat at 1 mg/kg, iv measured up to 24 hrs by LC-MS/MS analysis; type: ADME, organism-based; set-up: route intravenous, dose 1 mg/kg, time <=24; settings: in vivo
[13] = Drug level in ICR mouse plasma at 10 mg/kg, po measured after 1.5 hrs by LC/MS/MS analysis; type: ADME, organism-based
[14] = Drug level in ICR mouse brain at 10 mg/kg, po measured after 1.5 hrs by LC/MS/MS analysis; type: ADME, organism-based; settings: read-out: Ct
HT-22 = assay: Neuroprotective activity in mouse HT-22 cells assessed as glutamate-induced cell mortality at 6 uM preincubated for 1 hr followed by addition of glutamate and measured after 24 hrs (reference value: 58%); type: functional; settings: time 25 hrs
[15] = MRT (0 to infinity) in Sprague-Dawley rat at 1 mg/kg, iv measured up to 24 hrs by LC-MS/MS analysis; type: ADME, organism-based; settings: in vivo
[16] = Cmax in Sprague-Dawley rat at 10 mg/kg, po measured up to 24 hrs by LC-MS/MS analysis; type: ADME, organism-based; set-up: route oral, dose 10 mg/kg, time <=24; settings: in vivo
[17] = Effective permeability of the compound by PAMPA-BBB assay; type: ADME; settings: read-out: Peff
[18] = Drug level in ICR mouse brain at 10 mg/kg, po measured after 1 hr by LC/MS/MS analysis; type: ADME, organism-based; settings: read-out: Ct
[19] = MRT (0 to infinity) in Sprague-Dawley rat at 10 mg/kg, po measured up to 24 hrs by LC-MS/MS analysis; type: ADME, organism-based; settings: in vivo
[20] = Cmax in Sprague-Dawley rat at 1 mg/kg, iv measured up to 24 hrs by LC-MS/MS analysis; type: ADME, organism-based; set-up: route intravenous, dose 1 mg/kg, time <=24; settings: in vivo
[21] = Oral bioavailability in Sprague-Dawley rat at 10 mg/kg measured up to 24 hrs by LC-MS/MS analysis; type: ADME, organism-based; settings: in vivo
[22] = target: T1, Acetylcholinesterase (Mus musculus) (UniProt P21836); settings: ICR, dose 10.0 mg/kg, time 1.5 hrs
T1 sequence (whole entry): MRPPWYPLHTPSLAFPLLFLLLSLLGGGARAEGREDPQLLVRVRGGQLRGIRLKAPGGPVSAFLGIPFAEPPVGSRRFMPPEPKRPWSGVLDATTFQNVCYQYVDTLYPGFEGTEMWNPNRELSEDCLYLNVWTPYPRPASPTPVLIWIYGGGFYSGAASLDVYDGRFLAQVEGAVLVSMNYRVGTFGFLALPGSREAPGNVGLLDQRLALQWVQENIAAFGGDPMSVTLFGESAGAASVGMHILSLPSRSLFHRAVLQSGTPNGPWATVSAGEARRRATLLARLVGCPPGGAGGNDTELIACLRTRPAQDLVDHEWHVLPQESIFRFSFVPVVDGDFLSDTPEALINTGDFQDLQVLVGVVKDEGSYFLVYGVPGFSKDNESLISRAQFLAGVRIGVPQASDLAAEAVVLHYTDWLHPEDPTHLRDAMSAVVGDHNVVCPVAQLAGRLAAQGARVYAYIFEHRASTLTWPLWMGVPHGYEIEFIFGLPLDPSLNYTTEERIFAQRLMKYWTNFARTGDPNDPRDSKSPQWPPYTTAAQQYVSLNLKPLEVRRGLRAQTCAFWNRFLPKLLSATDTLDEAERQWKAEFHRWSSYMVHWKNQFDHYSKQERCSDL

[23] = target: T1, Acetylcholinesterase (Mus musculus); settings: ICR, dose 10.0 mg/kg, time 1.5 hrs; remark: listed apart in the source
[24] = Ratio of drug level in brain to plasma of ICR mouse at 10 mg/kg, po measured after 1.5 hrs by LC/MS/MS analysis; type: ADME, organism-based; settings: brain and plasma
[25] = Tmax in Sprague-Dawley rat at 10 mg/kg, po measured up to 24 hrs by LC-MS/MS analysis; type: ADME, organism-based; settings: in vivo

Sequence of Acetylcholinesterase (Electrophorus electricus, UniProt O42275) (O42275 whole entry): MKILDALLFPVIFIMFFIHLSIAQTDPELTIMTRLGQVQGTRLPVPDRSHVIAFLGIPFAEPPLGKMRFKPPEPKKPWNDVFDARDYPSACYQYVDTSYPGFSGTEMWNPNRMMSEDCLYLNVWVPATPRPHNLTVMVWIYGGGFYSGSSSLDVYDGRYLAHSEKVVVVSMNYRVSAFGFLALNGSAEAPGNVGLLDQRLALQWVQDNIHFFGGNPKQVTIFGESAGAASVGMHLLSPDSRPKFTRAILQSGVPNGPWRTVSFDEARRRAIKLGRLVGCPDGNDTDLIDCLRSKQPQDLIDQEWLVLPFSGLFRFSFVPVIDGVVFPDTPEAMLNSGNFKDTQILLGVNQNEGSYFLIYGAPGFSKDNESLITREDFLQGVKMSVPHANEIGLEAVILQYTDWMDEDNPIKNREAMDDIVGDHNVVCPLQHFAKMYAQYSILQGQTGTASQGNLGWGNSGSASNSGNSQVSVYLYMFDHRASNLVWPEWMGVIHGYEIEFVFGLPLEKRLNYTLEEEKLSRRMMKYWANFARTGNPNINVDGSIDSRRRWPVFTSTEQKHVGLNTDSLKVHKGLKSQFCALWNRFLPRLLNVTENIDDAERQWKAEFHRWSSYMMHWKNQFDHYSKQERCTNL
Sequence of Acetylcholinesterase (Homo sapiens, UniProt P22303) (P22303 whole entry): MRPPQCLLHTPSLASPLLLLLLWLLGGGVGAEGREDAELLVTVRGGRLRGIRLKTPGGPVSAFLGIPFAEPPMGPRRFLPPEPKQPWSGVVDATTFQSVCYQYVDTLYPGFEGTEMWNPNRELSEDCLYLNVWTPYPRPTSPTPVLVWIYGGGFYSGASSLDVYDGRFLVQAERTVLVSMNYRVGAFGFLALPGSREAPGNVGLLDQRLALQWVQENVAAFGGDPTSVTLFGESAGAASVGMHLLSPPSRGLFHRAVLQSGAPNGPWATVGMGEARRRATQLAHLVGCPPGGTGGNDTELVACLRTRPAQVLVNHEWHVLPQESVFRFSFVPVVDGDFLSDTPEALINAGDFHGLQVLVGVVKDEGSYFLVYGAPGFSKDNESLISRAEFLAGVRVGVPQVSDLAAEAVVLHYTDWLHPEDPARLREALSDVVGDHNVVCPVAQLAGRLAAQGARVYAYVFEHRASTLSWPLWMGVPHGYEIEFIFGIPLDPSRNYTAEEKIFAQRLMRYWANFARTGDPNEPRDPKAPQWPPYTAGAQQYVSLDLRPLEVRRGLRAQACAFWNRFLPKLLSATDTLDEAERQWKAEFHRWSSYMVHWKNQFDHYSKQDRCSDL
Sequence of Glycogen synthase kinase-3 beta (P49841 whole entry): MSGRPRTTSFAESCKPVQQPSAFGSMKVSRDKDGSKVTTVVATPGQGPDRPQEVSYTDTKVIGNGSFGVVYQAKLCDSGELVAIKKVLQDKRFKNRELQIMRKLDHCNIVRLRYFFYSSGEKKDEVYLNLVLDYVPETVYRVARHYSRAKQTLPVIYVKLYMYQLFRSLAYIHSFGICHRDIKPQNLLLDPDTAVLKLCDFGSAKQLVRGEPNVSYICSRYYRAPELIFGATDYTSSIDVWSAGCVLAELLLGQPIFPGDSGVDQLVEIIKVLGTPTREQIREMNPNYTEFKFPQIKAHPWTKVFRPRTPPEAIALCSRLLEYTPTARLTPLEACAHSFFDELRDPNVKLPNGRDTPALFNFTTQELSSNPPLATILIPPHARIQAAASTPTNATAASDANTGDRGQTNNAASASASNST

Work on O=C(NCCC1CCN(Cc2cccc(Cl)c2)CC1)c1cncc(NC(=O)c2ccnc(NC(=O)C3CC3)c2)c1 yielded an IC50 [1] of 152 nM.

With CC(=O)Nc1cc(C(=O)Nc2cccc(OCC3CCN(Cc4ccc(F)cc4)CC3)c2)ccn1 the IC50 [1] was > 10000 nM and the IC50 (Acetylcholinesterase [2]) was > 10000 nM.

Compound O=C(Nc1cncc(OCC2CCN(Cc3ccccc3F)CC2)c1)c1ccnc(NC(=O)C2CC2)c1 has an IC50 (Acetylcholinesterase [3]) of 4.7 nM, an IC50 [1] of 77 nM and an IC50 (Acetylcholinesterase [2]) of 10.1 nM.

For O=C(NCC1CCN(Cc2cccc(Cl)c2)CC1)c1cncc(NC(=O)c2ccnc3[nH]ccc23)c1, the IC50 (Acetylcholinesterase [3]) was 1310 nM, the IC50 [1] was > 10000 nM and the IC50 (Acetylcholinesterase [2]) was 874 nM.

Work on CC(=O)Nc1cc(C(=O)Nc2cncc(OCC3CCN(Cc4ccc(F)cc4)CC3)c2)ccn1 yielded an IC50 (Acetylcholinesterase [3]) of 9 nM, an IC50 [1] of 3510 nM and an IC50 (Acetylcholinesterase [2]) of 16 nM.

With COc1cc2c(cc1OC)C(=O)C(CC1CCN(Cc3ccccc3)CC1)C2 (centres undefined) [DONEPEZIL] the Activity (Mus musculus [4]) was “Active”, the IC50 [1] was > 10000 nM and the Activity (Mus musculus [5]) was “Active”. The Activity (Mus musculus [6]) was “Active”.

Work on O=C(Nc1cncc(OCC2CCN(Cc3ccccc3)CC2)c1)c1ccnc(NC(=O)C2CC2)c1 yielded an AUC(0-inf) [7] of 377 ng·h/mL, a half-life [8] of 6.3 h and a concentration at 1 h [9] of 112 ng/g. It also gave a Kp at 1 h [10] of 0.306, a half-life [11] of 21.4 h and an AUC(0-inf) [12] of 152 ng·h/mL. For the same compound, the IC50 (Acetylcholinesterase [3]) was 2.6 nM, the Activity (Mus musculus [4]) was “Active” and the concentration at 1.5 h [13] was 62.9 ng/g. For the same compound, the concentration at 1.5 h [14] was 43.7 ng/g, the Activity (HT-22) was 66% and the MRT inf [15] was 10 h. For the same compound, the Cmax [16] was 47.1 ng/mL, the Papp [17] was 8.2 ×10⁻⁶ cm/s and the concentration at 1 h [18] was 34.4 ng/g. It also gave an MRT inf [19] of 8.9 h, a Cmax [20] of 98.3 ng/mL and a bioavailability [21] of 24.8%. It also gave an inhibition [22] of 73.1%, an IC50 [1] of 23 nM and an inhibition [23] of 48.3%. It also gave a Kp at 1.5 h [24] of 0.695, an IC50 (Acetylcholinesterase [2]) of 1.6 nM and a Tmax [25] of 1.7 h.

Compound O=C(Nc1cncc(OCC2CCN(Cc3ccccc3Cl)CC2)c1)c1ccnc(NC(=O)C2CC2)c1 has an IC50 (Acetylcholinesterase [3]) of 81.6 nM, an IC50 [1] of 79 nM and an IC50 (Acetylcholinesterase [2]) of 97.2 nM.

O=C(Nc1cncc(C(=O)NC2CCN(Cc3cccc(Cl)c3)CC2)c1)c1ccnc(NC(=O)C2CC2)c1 showed an IC50 (Acetylcholinesterase [3]) of 2500 nM, an IC50 [1] of 63 nM and an IC50 (Acetylcholinesterase [2]) of 951 nM.

Compound O=C(NC1CCN(Cc2ccc(F)cc2)CC1)c1cncc(NC(=O)c2ccnc3[nH]ccc23)c1 has an IC50 (Acetylcholinesterase [3]) of 227 nM, an IC50 [1] of 4930 nM and an IC50 (Acetylcholinesterase [2]) of 406 nM.

In the case of O=C(Nc1cncc(OCC2CCN(Cc3ccccc3)CC2)c1)c1ccnc2[nH]ccc12, the IC50 (Acetylcholinesterase [3]) is reported as 3.9 nM, the IC50 [1] is reported as 837 nM and the IC50 (Acetylcholinesterase [2]) is reported as 2.3 nM.

With CC(=O)Nc1cc(C(=O)Nc2cccc(OCC3CCN(Cc4ccccc4)CC3)c2)ccn1 the IC50 (Acetylcholinesterase [3]) was > 10000 nM, the IC50 [1] was > 10000 nM and the IC50 (Acetylcholinesterase [2]) was 2200 nM.

In the case of O=C(Nc1cncc(OC2CCN(Cc3ccccc3)CC2)c1)c1ccnc(NC(=O)C2CC2)c1, the IC50 (Acetylcholinesterase [3]) is reported as > 10000 nM, the IC50 [1] is reported as 734 nM and the IC50 (Acetylcholinesterase [2]) is reported as 9810 nM.

In the case of O=C(NCC1CCN(Cc2ccccc2F)CC1)c1cncc(NC(=O)c2ccnc(NC(=O)C3CC3)c2)c1, the IC50 (Acetylcholinesterase [3]) is reported as 1760 nM, the IC50 [1] is reported as 164 nM and the IC50 (Acetylcholinesterase [2]) is reported as 1720 nM.

Compound O=C(NCC1CCN(Cc2ccc(F)cc2)CC1)c1cncc(NC(=O)c2ccnc(NC(=O)C3CC3)c2)c1 has an IC50 (Acetylcholinesterase [3]) of 3030 nM, an IC50 [1] of 244 nM and an IC50 (Acetylcholinesterase [2]) of 1160 nM.

Reference: ChEMBL document CHEMBL4831493 (Eur J Med Chem, 2021)
